Results as given in patent publication US12428406B2 (PMV Pharmaceuticals, Inc., priority 2019, dated 2025).

molecular target: T1, p53 Y220C (Homo sapiens, UniProt P04637, Y220C); experiment: In vitro DNA binding activity assay (HTRF / TR-FRET): stabilization of p53 Y220C and increase of its DNA binding activity; format: biochemical; conditions: recombinant His-tagged p53 Y220C DNA binding domain (aa 94-312), biotin-labeled consensus DNA, incubated at 27° C. or 29° C. for 60 min
T1 construct: The recombinant protein was a truncation mutant containing only amino acids 94-312 of p53; made in house; host or cells: E. coli
Procedure, shortened: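 His-tagged p53 Y220C, E. coli-expressed, binding biotin-labeled consensus DNA measured by HTRF (anti-His-APC, streptavidin-europium). Compounds from 4.5 mM DMSO stocks, 3-fold serial dilutions; incubations at room temperature 15 min, then 20 min. SC150 = concentration raising DNA binding by 50%.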

T1 sequence (P04637 94-312, change not shown): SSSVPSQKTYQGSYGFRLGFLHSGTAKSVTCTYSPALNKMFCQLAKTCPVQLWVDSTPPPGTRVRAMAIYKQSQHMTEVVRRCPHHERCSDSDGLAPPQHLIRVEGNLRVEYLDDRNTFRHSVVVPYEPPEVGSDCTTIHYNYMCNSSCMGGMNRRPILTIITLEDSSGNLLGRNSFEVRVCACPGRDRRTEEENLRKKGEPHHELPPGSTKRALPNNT

| SMILES | SC150 (concentration of the compound required to increase the DNA binding activity by 50%) |
| --- | --- |
| COc1cc(S(C)(=O)=O)ccc1NCC#Cc1cc2c(N[C@H]3CC[C@H](N4CC5CC(C4)O5)CC3)cccc2n1CC(F)(F)F [Compound 398A, 2-{3-[(4-methanesulfonyl-2-methoxyphenyl)amino]prop-1-yn-1-yl}-N-[(1R,4R)-4-{6-oxa-3-azabicyclo[3.1.1]heptan-3-yl}cyclohexyl]-1-(2,2,2-trifluoroethyl)-1H-indol-4-amine] | + (+ = 0 μM ≤ SC150 < 0.05 μM) |
| CNC(=O)c1ccc(NCC#Cc2cc3c(N[C@H]4CC[C@H](N)CC4)cccc3n2CC(F)(F)F)c(OC)c1 [Compound 24A, 3-methoxy-N-methyl-4-{[3-(4-{[(1R,4R)-4-aminocyclo-hexyl]amino}-1-(2,2,2-trifluoroethyl)-1H-indol-2-yl)prop-2-yn-1-yl]amino}benzamide] | + (+ = 0 μM ≤ SC150 < 0.05 μM) |
| COc1cc(S(=O)(=O)N2CCOCC2)ccc1NCC#Cc1cc2c(N[C@H]3CC[C@H](N(C)C)CC3)cccc2n1CC(F)(F)F [Compound 67A, (1R,4R)-N^4-[2-(3-{[2-methoxy-4-(morpholine-4-sulfonyl)phenyl]amino}prop-1-yn-1-yl)-1-(2,2,2-trifluoro-ethyl)-1H-indol-4-yl]-N^1,N^1-dimethyl-cyclohexane-1,4-diamine] | + (+ = 0 μM ≤ SC150 < 0.05 μM) |
| COC(=O)c1ccc(NCC#Cc2cc3c(N[C@H]4CCN(C)C[C@@H]4F)cccc3n2CC(F)(F)F)c(OC)c1 (racemic) [Compound 777A, rac-Methyl 4-{[3-(4-{[(3R,4R)-3-fluoro-1-methylpiperidin-4-yl]amino}-1-(2,2,2-trifluoroethyl)-1H-indol-2-yl)prop-2-yn-1-yl]amino}-3-methoxybenzoate] | + (+ = 0 μM ≤ SC150 < 0.05 μM) |
| COc1cc(S(N)(=O)=O)ccc1NCC#Cc1cc2c(N[C@H]3C[C@@H](C)O[C@@H](C)C3)cccc2n1CC(F)(F)F [Compound 1032A, 3-methoxy-4-{[3-(4-{[(2R,4R,6S)-2,6-dimethyloxan-4-yl]amino}-1-(2,2,2-trifluoroethyl)-1H-indol-2-yl)prop-2-yn-1-yl]amino}benzene-1-sulfonamide] | ++ (++ = 0.05 μM ≤ SC150 < 0.1 μM) |
| COc1cc(S(C)(=O)=O)ccc1NCC#Cc1cc2c(N[C@H]3CC[C@H](N4CCC(OC)C4)CC3)cccc2n1CC(F)(F)F (stereo partly drawn) [Compound 426A, 2-{3-[(4-methane-sulfonyl-2-methoxy-phenyl)amino]prop-1-yn-1-yl}-N-[(1R,4R)-4-(3-methoxypyrrolidin-1-yl)cyclohexyl]-1-(2,2,2-trifluoroethyl)-1H-indol-4-amine] | + (+ = 0 μM ≤ SC150 < 0.05 μM) |
| COCC(O)CN1CCC(Nc2cccc3c2cc(C#CCNc2ccc(S(N)(=O)=O)cc2OC)n3CC(F)(F)F)CC1 (centres unmarked) [Compound 574A, 4-{[3-(4-{[1-(2-hydroxy-3-methoxypropyl)piperidin-4-yl]amino}-1-(2,2,2-trifluoroethyl)-1H-indol-2-yl)prop-2-yn-1-yl]amino}-3-methoxybenzene-1-sulfonamide] | + (+ = 0 μM ≤ SC150 < 0.05 μM) |
| COCC(O)CN1CCC(Nc2cccc3c2cc(C#CCNc2ccc(C(C)(C)C#N)cc2OC)n3CC(F)(F)F)CC1 (centres unmarked) [Compound 665A, 2-(4-{[3-(4-{[1-(2-hydroxy-3-methoxypropyl)piperidin-4-yl]amino}-1-(2,2,2-trifluoroethyl)-1H-indol-2-yl)prop-2-yn-1-yl]amino}-3-methoxyphenyl)-2-methylpropanenitrile] | + (+ = 0 μM ≤ SC150 < 0.05 μM) |
